# Measured values taken from US9302999B2, “Substituted triazoles as herbicides” (E. I. DU PONT DE NEMOURS AND COMPANY, priority 2012, dated 2016).
# Columns and labels:
# [1] = test system: barnyardgrass (Echinochloa crus-galli); assay: Test B flooded paddy: barnyardgrass; type: in vivo; details: Flood, applied to paddy water at 2-leaf stage, visually evaluated after 13 to 15 days
# Procedure, shortened: (§1)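 Plants were grown to the 2-leaf stage and pots flooded to 3 cm above soil. Compounds were applied directly into the paddy water, with depth kept for the test. After 13–15 days in greenhouse, response was rated visually against controls on a 0 (no effect) to 100 (complete control) scale.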
# rice (Oryza sativa) = assay: Test B flooded paddy: rice; type: in vivo; details: Flood, applied to paddy water at 2-leaf stage, visually evaluated after 13 to 15 days
# Procedure, shortened: as §1
# Barnyardgrass [2] = assay: Test C preemergence: barnyardgrass; type: in vivo, Echinochloa crus-galli
# wild oat (Avena fatua) = assay: Test C pre-/postemergence: wild oat; type: in vivo; details: Postemergence
# Procedure, shortened: (§2)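 Preemergence on seeds in loam/sand, postemergence on 2–18 cm (1–4-leaf) plants in peat-based medium; compounds in non-phytotoxic solvent with surfactant. After 13–15 days in greenhouse, visual rating versus controls, 0 (no effect) to 100 (complete control).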
# [3] = test system: winter wheat (Triticum aestivum); assay: Test C pre-/postemergence: winter wheat; type: in vivo
# Procedure, shortened: as §2
# [4] = test system: pigweed (Amaranthus retroflexus); assay: Test C pre-/postemergence: pigweed; type: in vivo
# Procedure, shortened: as §2
# [5] = test system: galium (catchweed bedstraw, Galium aparine); assay: Test C pre-/postemergence: galium; type: in vivo
# Procedure, shortened: as §2
# Barnyardgrass [6] = assay: Test C postemergence: barnyardgrass; type: in vivo, Echinochloa crus-galli; details: 125 g ai/ha, scale 0 to 100, 0 no effect, 100 complete control
# [7] = test system: velvetleaf (Abutilon theophrasti); assay: Test C pre-/postemergence: velvetleaf; type: in vivo
# Procedure, shortened: as §2
# [8] = test system: velvetleaf (Abutilon theophrasti); assay: Test A pre-/postemergence: velvetleaf; type: in vivo
# Procedure, shortened: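 Rating scale 0–100 (100 = complete control), visual, ~10 days after application in the greenhouse. Applications: preemergence directed soil spray; postemergence at 1–2 leaves.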
# [9] = 31 g ai/ha, scale 0 (no effect) to 100 (complete control)
# [10] = 62 g ai/ha, scale of 0 to 100, 0 is no effect, 100 is complete control
# [11] = 125 g ai/ha, scale 0 to 100, 0 no effect, 100 complete control
# [12] = 31 g ai/ha, scale 0 to 100 (0 no effect, 100 complete control)
# [13] = 62 g ai/ha, scale 0 to 100 (0 no effect, 100 complete control)
# [14] = 250 g ai/ha, scale 0 to 100 (0 no effect, 100 complete control)
# [15] = Postemergence, 31 g ai/ha, scale 0 to 100 (0 no effect, 100 complete control)
# [16] = Postemergence, 62 g ai/ha, scale 0 to 100 (0 no effect, 100 complete control)
# [17] = Postemergence, 125 g ai/ha, scale 0 to 100, 0 no effect, 100 complete control
# [18] = Postemergence, 250 g ai/ha, scale 0 to 100 (0 no effect, 100 complete control)
# [19] = Preemergence, 31 g ai/ha, scale 0 (no effect) to 100 (complete control)
# [20] = Preemergence, 62 g ai/ha, scale of 0 to 100, 0 is no effect, 100 is complete control
# [21] = Preemergence, 125 g ai/ha, scale 0 to 100, 0 no effect, 100 complete control
# [22] = Preemergence, 250 g ai/ha, scale 0 to 100, 0 no effect, 100 complete control
# [23] = Postemergence, 125 g ai/ha, 0 to 100 scale, 0 is no effect, 100 is complete control
# [24] = Postemergence, 500 g ai/ha, 0 to 100 scale, 0 is no effect, 100 is complete control
# [25] = Preemergence, 125 g ai/ha, 0 to 100 scale where 0 is no effect and 100 is complete control
# [26] = Preemergence, 500 g ai/ha, 0 to 100 scale (0 no effect, 100 complete control)
structure (smiles),measurement,setting,value
CCCc1nn(-c2ccc(F)cc2F)nc1Oc1ccnc(C(F)(F)F)c1 [Compound 179],"Plant response rating, Barnyardgrass (0 to 100 scale, 0 is no effect, 100 is complete control)",[1]; 125 g ai/ha,0
same,"Plant response rating, Rice (0 to 100 scale, 0 is no effect, 100 is complete control)",rice (Oryza sativa); 125 g ai/ha,35
same,"Plant response rating, Barnyardgrass",Barnyardgrass [2]; [9],40
same,"Plant response rating, Barnyardgrass",Barnyardgrass [2]; [10],100
same,"Plant response rating, Barnyardgrass",Barnyardgrass [2]; [11],100
same,"Plant response rating, Oat, Wild",wild oat (Avena fatua); [12],10
same,"Plant response rating, Oat, Wild",wild oat (Avena fatua); [13],20
same,"Plant response rating, Oat, Wild",wild oat (Avena fatua); [11],35
same,"Plant response rating, Oat, Wild",wild oat (Avena fatua); [14],50
same,"Plant response rating, Wheat",[3]; [15],5
same,"Plant response rating, Wheat",[3]; [16],10
same,"Plant response rating, Wheat",[3]; [17],15
same,"Plant response rating, Wheat",[3]; [18],15
same,"Plant response rating, Wheat",[3]; [19],5
same,"Plant response rating, Wheat",[3]; [20],15
same,"Plant response rating, Wheat",[3]; [21],50
same,"Plant response rating, Wheat",[3]; [22],55
same,"Plant response rating, Pigweed",[4]; [15],95
same,"Plant response rating, Pigweed",[4]; [16],98
same,"Plant response rating, Pigweed",[4]; [17],98
same,"Plant response rating, Pigweed",[4]; [18],100
same,"Plant response rating, Pigweed",[4]; [19],100
same,"Plant response rating, Pigweed",[4]; [20],100
same,"Plant response rating, Pigweed",[4]; [21],100
same,"Plant response rating, Pigweed",[4]; [22],100
same,"Plant response rating, Galium",[5]; [15],90
same,"Plant response rating, Galium",[5]; [16],90
same,"Plant response rating, Galium",[5]; [17],90
same,"Plant response rating, Galium",[5]; [18],90
same,"Plant response rating, Galium",[5]; [19],80
same,"Plant response rating, Galium",[5]; [20],100
same,"Plant response rating, Galium",[5]; [21],100
same,"Plant response rating, Galium",[5]; [22],100
same,"Plant response rating, Barnyardgrass",Barnyardgrass [6],65
same,"Plant response rating, Velvetleaf",[7]; [15],55
same,"Plant response rating, Velvetleaf",[7]; [16],75
same,"Plant response rating, Velvetleaf",[7]; [17],75
same,"Plant response rating, Velvetleaf",[7]; [18],75
same,"Plant response rating, Velvetleaf",[7]; [19],30
same,"Plant response rating, Velvetleaf",[7]; [20],75
same,"Plant response rating, Velvetleaf",[7]; [21],80
same,"Plant response rating, Velvetleaf",[7]; [22],80
same,"Plant response rating, Velvetleaf",[8]; [23],90
same,Velvetleaf plant response rating,[8]; [24],100
same,"Plant response rating, Velvetleaf",[8]; [25],80
same,"Plant response rating, Velvetleaf",[8]; [26],100
CCOc1nn(-c2ccc(Cl)cc2)nc1Cc1ccnc(C(F)(F)F)c1 [Compound 188],"Plant response rating, Barnyardgrass (0 to 100 scale, 0 is no effect, 100 is complete control)",[1]; 125 g ai/ha,75
same,"Plant response rating, Rice (0 to 100 scale, 0 is no effect, 100 is complete control)",rice (Oryza sativa); 125 g ai/ha,50
same,"Plant response rating, Barnyardgrass",Barnyardgrass [2]; [9],80
same,"Plant response rating, Barnyardgrass",Barnyardgrass [2]; [10],100
same,"Plant response rating, Barnyardgrass",Barnyardgrass [2]; [11],100
same,"Plant response rating, Oat, Wild",wild oat (Avena fatua); [12],45
same,"Plant response rating, Oat, Wild",wild oat (Avena fatua); [13],60
same,"Plant response rating, Oat, Wild",wild oat (Avena fatua); [11],60
same,"Plant response rating, Oat, Wild",wild oat (Avena fatua); [14],90
same,"Plant response rating, Wheat",[3]; [15],20
same,"Plant response rating, Wheat",[3]; [16],30
same,"Plant response rating, Wheat",[3]; [17],45
same,"Plant response rating, Wheat",[3]; [18],50
same,"Plant response rating, Wheat",[3]; [19],30
same,"Plant response rating, Wheat",[3]; [20],30
same,"Plant response rating, Wheat",[3]; [21],35
same,"Plant response rating, Wheat",[3]; [22],40
same,"Plant response rating, Pigweed",[4]; [15],95
same,"Plant response rating, Pigweed",[4]; [16],95
same,"Plant response rating, Pigweed",[4]; [17],98
same,"Plant response rating, Pigweed",[4]; [18],100
same,"Plant response rating, Pigweed",[4]; [19],100
same,"Plant response rating, Pigweed",[4]; [20],100
same,"Plant response rating, Pigweed",[4]; [21],100
same,"Plant response rating, Pigweed",[4]; [22],100
same,"Plant response rating, Galium",[5]; [15],60
same,"Plant response rating, Galium",[5]; [16],80
same,"Plant response rating, Galium",[5]; [17],85
same,"Plant response rating, Galium",[5]; [18],90
same,"Plant response rating, Galium",[5]; [19],90
same,"Plant response rating, Galium",[5]; [20],90
same,"Plant response rating, Galium",[5]; [21],95
same,"Plant response rating, Galium",[5]; [22],95
same,"Plant response rating, Barnyardgrass",Barnyardgrass [6],98
same,"Plant response rating, Velvetleaf",[7]; [15],50
same,"Plant response rating, Velvetleaf",[7]; [16],65
same,"Plant response rating, Velvetleaf",[7]; [17],70
same,"Plant response rating, Velvetleaf",[7]; [18],70
same,"Plant response rating, Velvetleaf",[7]; [19],45
same,"Plant response rating, Velvetleaf",[7]; [20],65
same,"Plant response rating, Velvetleaf",[7]; [21],85
same,"Plant response rating, Velvetleaf",[7]; [22],90
same,"Plant response rating, Velvetleaf",[8]; [23],70
same,Velvetleaf plant response rating,[8]; [24],90
same,"Plant response rating, Velvetleaf",[8]; [25],40
same,"Plant response rating, Velvetleaf",[8]; [26],90
CCc1nn(-c2ccc(C(F)(F)F)cc2)nc1Oc1ccnc(C(F)(F)F)c1 [Compound 169],"Plant response rating, Barnyardgrass (0 to 100 scale, 0 is no effect, 100 is complete control)",[1]; 250 g ai/ha,75
same,"Plant response rating, Rice (0 to 100 scale, 0 is no effect, 100 is complete control)",rice (Oryza sativa); 250 g ai/ha,55
same,"Plant response rating, Barnyardgrass",Barnyardgrass [2]; [9],40
same,"Plant response rating, Barnyardgrass",Barnyardgrass [2]; [10],80
same,"Plant response rating, Barnyardgrass",Barnyardgrass [2]; [11],98
same,"Plant response rating, Oat, Wild",wild oat (Avena fatua); [12],5
same,"Plant response rating, Oat, Wild",wild oat (Avena fatua); [13],25
same,"Plant response rating, Oat, Wild",wild oat (Avena fatua); [11],30
same,"Plant response rating, Oat, Wild",wild oat (Avena fatua); [14],50
same,"Plant response rating, Wheat",[3]; [15],10
same,"Plant response rating, Wheat",[3]; [16],10
same,"Plant response rating, Wheat",[3]; [17],30
same,"Plant response rating, Wheat",[3]; [18],30
same,"Plant response rating, Wheat",[3]; [19],5
same,"Plant response rating, Wheat",[3]; [20],15
same,"Plant response rating, Wheat",[3]; [21],20
same,"Plant response rating, Wheat",[3]; [22],50
same,"Plant response rating, Pigweed",[4]; [15],95
same,"Plant response rating, Pigweed",[4]; [16],95
same,"Plant response rating, Pigweed",[4]; [17],100
same,"Plant response rating, Pigweed",[4]; [18],100
same,"Plant response rating, Pigweed",[4]; [19],100
same,"Plant response rating, Pigweed",[4]; [20],100
same,"Plant response rating, Pigweed",[4]; [21],100
same,"Plant response rating, Pigweed",[4]; [22],100
same,"Plant response rating, Galium",[5]; [15],80
same,"Plant response rating, Galium",[5]; [16],90
same,"Plant response rating, Galium",[5]; [17],90
same,"Plant response rating, Galium",[5]; [18],95
same,"Plant response rating, Galium",[5]; [19],100
same,"Plant response rating, Galium",[5]; [20],100
same,"Plant response rating, Galium",[5]; [21],100
same,"Plant response rating, Galium",[5]; [22],100
same,"Plant response rating, Barnyardgrass",Barnyardgrass [6],75
same,"Plant response rating, Velvetleaf",[7]; [15],50
same,"Plant response rating, Velvetleaf",[7]; [16],65
same,"Plant response rating, Velvetleaf",[7]; [17],75
same,"Plant response rating, Velvetleaf",[7]; [18],80
same,"Plant response rating, Velvetleaf",[7]; [19],50
same,"Plant response rating, Velvetleaf",[7]; [20],75
same,"Plant response rating, Velvetleaf",[7]; [21],75
same,"Plant response rating, Velvetleaf",[7]; [22],100
same,"Plant response rating, Velvetleaf",[8]; [23],100
same,Velvetleaf plant response rating,[8]; [24],100
same,"Plant response rating, Velvetleaf",[8]; [25],50
same,"Plant response rating, Velvetleaf",[8]; [26],90
